Data on five compounds can be found in ChEMBL document CHEMBL1201862, “PubChem BioAssay data set” (2004).

Test systems include NCI-H23; T47D; NCI-H460; Malme-3M; NCI-H522; SF-268; UACC-62; HCT-15; KM-20L2; HOP-62; RPMI-8226; MCF7; HL-60; DU-145; DMS-273; SK-MEL-2; OVCAR-8; SNB-19; K562; SF-295.
Common to all, as to experiment: NCI tumour cell line growth inhibition, 48 h

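Growth conditions: 96-well plates. Treatment: test compound, 48 hours, 5 concentrations. Analysis: linear interpolation between bracketing concentrations; unreached endpoints set to highest concentration. GI50 is the concentration that inhibits growth by half.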 The source made the active and inactive calls. Rule as the data show it: active = GI50 up to about 1.1 µM and inactive = higher.

`Clc1cccc(N2CCN(CCN3CCc4c([nH]c5ccccc45)C3c3cccnc3)CC2)c1` (centres undefined): the GI50 in the assay with NCI-H23 is 78.5 µM (inactive); with T47D, 9.38 µM (inactive); with NCI-H460, 8.75 µM (inactive); in the assay on Malme-3M, > 66.8 µM (inactive); in the assay with NCI-H522, 65.5 µM (inactive); in the assay on SF-268 it was > 100 µM (inactive). Besides, the GI50 in the assay with UACC-62 was > 70 µM (inactive); with HCT-15, 8.81 µM; in the assay on KM-20L2 it was 24 µM (inactive); with HOP-62 it was > 45.6 µM (inactive); with RPMI-8226, 30.6 µM (inactive); with MCF7, 19.2 µM (inactive). Moreover, the GI50 is 26.3 µM (inactive) in the assay on HL-60; > 31.6 µM (inactive) in the assay with DU-145; 37.9 µM (inactive) with DMS-273; 61 µM (inactive) in the assay with SK-MEL-2; > 61.9 µM (inactive) with OVCAR-8; > 100 µM (inactive) in the assay on SNB-19. Moreover, the GI50 with K562 was 10.9 µM (inactive); in the assay with SF-295, 69 µM (inactive).
As for `O=C1C=CC(=O)c2ccc(=O)ccc21`, the GI50 is 19.1 µM (inactive) with NCI-H23; 2.34 µM (inactive) in the assay on T47D; 21.2 µM (inactive) in the assay with NCI-H460; 18.1 µM (inactive) in the assay on Malme-3M; 2.09 µM (inactive) with NCI-H522; 17.1 µM (inactive) in the assay with SF-268. Moreover, the GI50 was 13.7 µM (inactive) with UACC-62; 17 µM in the assay with HCT-15; 22.2 µM (inactive) in the assay with KM-20L2; 25.9 µM (inactive) in the assay with HOP-62; 3.15 µM (inactive) in the assay with RPMI-8226; 28.8 µM (inactive) in the assay on MCF7. For the same compound, the GI50 with HL-60 was 2.1 µM (inactive); with DU-145, 28.1 µM (inactive); with DMS-273, 25.5 µM (inactive); in the assay on SK-MEL-2 it was 18.1 µM (inactive); in the assay on OVCAR-8 it was 17.5 µM (inactive); in the assay on SNB-19 it was 16.9 µM (inactive). Moreover, the GI50 was 2.4 µM (inactive) in the assay on K562 and 13.2 µM (inactive) with SF-295.
For `N[C@H](C(=O)O)[C@H]1ON=C(Cl)[C@@H]1O`, the GI50 with NCI-H23 was 3.52 µM (inactive); with T47D, 33.6 µM (inactive); in the assay on NCI-H460, 2.76 µM (inactive); with Malme-3M it was 24.1 µM (inactive); in the assay with NCI-H522 it was 0.942 µM (active); with SF-268 it was 1.5 µM (inactive). The GI50 is 3.3 µM (inactive) with UACC-62; 1.21 µM in the assay with HCT-15; 0.343 µM (active) in the assay on KM-20L2; 2.13 µM (inactive) in the assay on HOP-62; 2.43 µM (inactive) in the assay on RPMI-8226; 2.6 µM (inactive) with MCF7. For the same compound, the GI50 in the assay with HL-60 is 3.46 µM (inactive); in the assay on DU-145 it was 27.4 µM (inactive); in the assay on DMS-273, 1.16 µM (inactive); in the assay with SK-MEL-2 it was 56.1 µM (inactive); in the assay with OVCAR-8, 2.95 µM (inactive); in the assay with SNB-19 it was 5.58 µM (inactive). The GI50 in the assay with K562 is 1.63 µM (inactive); in the assay on SF-295, 5.97 µM (inactive).
Consider `O=C1CC(c2n[nH]c3ccccc23)C(=O)N1c1ccccc1` (centres undefined), for which the GI50 in the assay on NCI-H23, in the assay with T47D, with NCI-H460, in the assay on Malme-3M, with NCI-H522 and in the assay with SF-268 was > 100 µM (inactive) in each case. The GI50 is > 100 µM (inactive) in the assay on UACC-62; greater than 100 µM in the assay with HCT-15; > 100 µM (inactive) with KM-20L2; > 100 µM (inactive) in the assay on HOP-62; 82.8 µM (inactive) in the assay with RPMI-8226; > 100 µM (inactive) with MCF7. The GI50 was 25.6 µM (inactive) with HL-60; > 100 µM (inactive) with DU-145; > 100 µM (inactive) in the assay with DMS-273; > 100 µM (inactive) with SK-MEL-2; > 100 µM (inactive) with OVCAR-8; > 100 µM (inactive) with SNB-19. In addition, the GI50 is 43.9 µM (inactive) in the assay with K562 and > 100 µM (inactive) in the assay with SF-295.
In the case of `C[C@H]1CCC2C(OC(=O)[C@@H]2CN(C)C)[C@]2(C)C(=O)C=CC12O` (some centres undefined), the GI50 with NCI-H23 was 3.26 µM (inactive); with T47D, 3.2 µM (inactive); with NCI-H460, 12.5 µM (inactive); in the assay with Malme-3M it was 3.7 µM (inactive); in the assay on NCI-H522 it was 1.32 µM (inactive); in the assay with SF-268, 6.79 µM (inactive). Besides, the GI50 in the assay on UACC-62 is 2.55 µM (inactive); with KM-20L2 it was 2.17 µM (inactive); in the assay on HOP-62, 23.9 µM (inactive); in the assay with RPMI-8226, 2.67 µM (inactive); with MCF7, 7.5 µM (inactive); in the assay on HL-60, 1.65 µM (inactive). The GI50 in the assay with DU-145 is 10.8 µM (inactive); in the assay with DMS-273 it was 3.12 µM (inactive); with SK-MEL-2, 9.44 µM (inactive); with OVCAR-8 it was 1.57 µM (inactive); with SNB-19, 22.9 µM (inactive); in the assay with K562, 3.23 µM (inactive). In addition, in the assay with SF-295, the GI50 is 13.2 µM (inactive).
